From US6887878B2, “KMST isoeugenol derivatives and pharmaceutical activity” (Ing-Jun Chen, priority 2003, dated 2005)
Like-named read-outs stand apart in the source and are kept apart here.

How the values were obtained:
α1-adrenergic receptor = test: noradrenaline-induced contraction in isolated rat thoracic aorta (pA2); parameters: species or system Wistar rat; conditions: Schild plot, mean ± SEM of eight
Description: Clonidine, noradrenaline and serotonin (10^−8˜10^−4 M) were added to the bath to induce contractions after pretreatment with KMST for 15 min.

5-HT1B = target: T1, 5-HT1B (Rattus norvegicus, UniProt P28564); test: [3H]GR125743 receptor binding in rat cortex; parameters: species or system Wistar rat; conditions: [3H]GR125743 (5-HT1B/1D), rat cortex; read-out: Ki 5-HT1B
T1 construct: from tissue; host or cells: Wistar rat cortex membranes
T1 sequence (P28564 whole entry): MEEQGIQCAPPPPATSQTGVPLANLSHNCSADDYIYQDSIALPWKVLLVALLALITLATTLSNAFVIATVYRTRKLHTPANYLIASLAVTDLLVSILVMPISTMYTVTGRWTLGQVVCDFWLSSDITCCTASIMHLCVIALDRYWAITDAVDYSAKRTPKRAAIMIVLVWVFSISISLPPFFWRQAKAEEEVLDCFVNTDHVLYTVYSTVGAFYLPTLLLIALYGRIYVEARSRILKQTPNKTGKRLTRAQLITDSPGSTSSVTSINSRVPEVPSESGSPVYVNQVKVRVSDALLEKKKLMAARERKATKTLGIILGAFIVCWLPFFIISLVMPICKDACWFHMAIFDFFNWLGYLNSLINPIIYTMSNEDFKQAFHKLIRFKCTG
Description: (§1) The homogenate was pressure filtered through muslin. Filtrate was centrifuged at 1000 g for 10 min. […] Protein content was determined by Bradford's method.

α1 receptors = test: [3H]prazosin receptor binding in rat cortex; parameters: species or system Wistar rat
Description: as §1

[1] = system: serotonin-induced human platelet aggregation; test: serotonin-induced human platelet aggregation; assay type: cell-based; conditions: Homo sapiens, Platelet; read-out: IC50 serotonin-induced platelet aggregation
Description: Venous blood from human volunteer donors was collected in 10 ml Monovette containing 1 ml citrate solution (0.106M trisodium citrate; Sarstedt, Nümbrecht, Germany) and centrifuged (400 g, 10 min, 20° C.). […] After centrifugation (10 min, 2000 g, 20° C.), the platelet pellet was resuspended in wishing buffer (113 mM NaCl, 4 mM Na2HPO4, 24 mM NaH2PO4, 4 mM KCl, 0.2 mM EGTA(Ethylene glycol-bis-(2-aminoethyl ether) N,N,N′-tetraacetic acid), 0.1% (wt/vol) glucose, pH 6.0) and recentrifuged (10 min, 2000 g, 20° C.). The washed platelets were resuspended in incubation buffer (134 mM NaCl, 12 mM NaHCO3, 2.9 mM KCl, 0.34 mM NaH2PO4, 5 mM HEPES (N-(2-hydroxyethyl) piperazine-N′-(2-ethanesulfonic acid)), 5 mM glucose, pH7.4), cells were counted in a Sysmex hematology analyzer (Sysmex, CDA-500, Japan) and adjusted to a final concentration of 2×10^8 platelets/ml.
The aggregation of the platelets in platelet-rich plasma (PRP) was measured as a change in light absorbance by a Payton dual-channel aggregometer (NBS, Hema tracer, Japan). PRP (240 μL) was stirred (700 rpm) at 37° C. for 1 min, and 5 μL epinephrine (final concentration 5 μM), serotonin (final concentration 5 μM) was added. After which the rate of primary aggregation (1/min) and maximum aggregation (%) at 5 min were recorded. To study the effects of compounds on epinephrine or serotonin-induced aggregation, PRP was incubated with 5 μL of compounds at various concentrations for 1 min before epinephrine or serotonin was added. IC50 values given were calculated from the secondary aggregation data.

α2 receptors = test: [3H]yohimbine receptor binding in rat cortex; parameters: species or system Wistar rat
Description: as §1

5-HT1A = target: T2, 5-HT1A (Rattus norvegicus, UniProt P19327); test: [3H]WAY100635 receptor binding
T2 sequence (P19327 1-422): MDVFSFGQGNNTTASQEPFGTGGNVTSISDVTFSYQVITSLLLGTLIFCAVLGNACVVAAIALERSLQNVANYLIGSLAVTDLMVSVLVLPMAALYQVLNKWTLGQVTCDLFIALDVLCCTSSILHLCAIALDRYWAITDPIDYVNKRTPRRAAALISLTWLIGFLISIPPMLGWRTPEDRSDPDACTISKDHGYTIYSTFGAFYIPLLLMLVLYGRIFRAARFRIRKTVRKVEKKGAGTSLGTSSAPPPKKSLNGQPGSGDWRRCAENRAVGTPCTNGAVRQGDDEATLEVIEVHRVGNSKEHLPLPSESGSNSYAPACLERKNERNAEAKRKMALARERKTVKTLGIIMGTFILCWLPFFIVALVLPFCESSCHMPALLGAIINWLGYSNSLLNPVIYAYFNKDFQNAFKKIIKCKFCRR

β1 receptors = target: T3, β1 receptors (Rattus norvegicus, UniProt P18090); test: [3H]CGP-12177 receptor binding in rat ventricle; parameters: species or system Wistar rat; conditions: [3H]CGP-12177, rat ventricle
T3 construct: from tissue; host or cells: Wistar rat heart (ventricle) membranes
T3 sequence (P18090 whole entry): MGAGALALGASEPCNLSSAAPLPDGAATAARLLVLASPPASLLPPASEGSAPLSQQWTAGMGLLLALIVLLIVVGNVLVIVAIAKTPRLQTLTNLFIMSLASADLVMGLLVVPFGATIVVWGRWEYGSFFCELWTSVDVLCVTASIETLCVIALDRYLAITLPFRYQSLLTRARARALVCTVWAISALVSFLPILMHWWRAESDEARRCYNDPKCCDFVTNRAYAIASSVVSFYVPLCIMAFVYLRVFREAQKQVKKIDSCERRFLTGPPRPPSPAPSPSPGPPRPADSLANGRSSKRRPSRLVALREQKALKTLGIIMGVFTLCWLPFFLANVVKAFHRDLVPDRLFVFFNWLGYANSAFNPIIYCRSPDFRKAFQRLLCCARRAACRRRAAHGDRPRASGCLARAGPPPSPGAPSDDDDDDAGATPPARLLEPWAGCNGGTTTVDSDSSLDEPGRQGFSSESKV
Description: as §1

anesthetized rats [2] = test: intra-cisternal injection and NTS microinjection, BP and HR; assay type: in vivo, rat; conditions: for BP and HR after intra-cisternal injection and NTS microinjection: central administration
Description: Intra-cisternal injections of KMST (0.3, 0.03 μmol), yohimbine [0.03 μmol), and clonidine (38 pmol), were performed in rats as described by Duan et al (1987). Briefly, rats weighing 250-300 g were anaesthetized with pentobarbital sodium (50 mg kg^−1, i.p.) and mounted in a David-Kopf stereotaxic instrument (Yeh J L. et al., Brain. Res. Bull., 30:641-648, 1993). The calvarium was exposed and a 1 mm diameter trephine hole was drilled 1.8 mm lateral to the coronary and 1.5 mm posterior to the sagittal sutures. A cannula (0.7 mm O.D.) connected to a Hamilton syringe (RN-705, 5051) by PE-50 was advanced 4.7 mm into the brain using the electrode carrier.
Rats were anesthetized and placed in a David-Kopf stereotaxic instrument. The cerebellum was exposed after removing the skin and occipital bone. The NTS coordinates were (reference to lambda) P 5-6 mm, L/R 0.5-1 mm, depth 6-7.5 mm (Wu et al., 1994). NTS injection sites were confirmed by decreasing BP and HR following micro-injection of 1% L-glutamate. […] Pre-treatment with clonidine was performed 15 min before administration of test agents. At the end of experiments, the animals were sacrificed. The brain was removed and sectioned for histological confirmation of the drug application site.

[3] = system: phenylephrine-induced contractions in rat thoracic aorta; test: LPS-induced vascular hyporeactivity: phenylephrine-induced contractions in rat thoracic aorta; assay type: in vivo, Wistar rat; conditions: pD2 to phenylephrine
[4] = system: IL-1β, IL-6, IFN-γ and TNF-α; test: LPS-induced plasma cytokine immunoreactivity; assay type: in vivo, rat; conditions: for LPS-induced elevations of IL-1β, IL-6, IFN-γ and TNF-α levels: 1 mg kg−1, i.v., pretreatment
Description: (§2) In brief, Wistar rats weighing 250-300 g were anesthetized with pentobarbital sodium (50 mg kg^−1, i.p.). Following tracheal cannulation, systemic arterial BP and HR were recorded from the femoral artery by a pressure transducer (model P10EZ; Spectramed, Oxnard, Calif., U.S.A.) connected to a recorder (GOULD, Valley View, Ohio, Model P50). Body temperature was maintained at 37° C. by an electric heating pad. A femoral vein was cannulated for intravenous injection of drugs and LPS (10 mg kg^−1).
Blood was collected from venous cannula, injected into ice-cold heparinized Eppendorf tubes and centrifuged at 1500 rpm for 10 min at 4° C. Plasma supernatant was stored at −70° C. until analyzed. Solid phase enzyme immunoassay that specifically detects murine IL-1β, IL-6, IFN-γ and TNF-α was used with a detection limit of >10 pg/ml (Endogen, U.S.A). Pre-treatment with KMST and other agents was performed 15 minutes before intravenous injection of LPS. Blood was collected from venous cannula. Blood glucose was measured with a glucose test strip (Glucotide, Bayer, U.S.A) at 1, 3 and 5 hours.

anesthetized rats [5] = test: LPS-induced hypotension; assay type: in vivo, Wistar rat; conditions: pretreatment, intravenous LPS
Description: as §2

[6] = system: lipid peroxidation in rat brain homogenate; test: lipid peroxidation initiated by Fe2+-ascorbic acid in rat brain homogenates (TBARS); assay type: biochemical; conditions: rat brain homogenates; read-out: IC50 inhibiting lipid peroxidation initiated by Fe2+-ascorbic acid
Description: Rat brain homogenate was made in 0.9% saline containing 10 mg tissue/ml. The rates of membrane lipid peroxidation were measured by the formation of thiobarbituric acid (TBA)-reactive substance (TBARS). Rat brain homogenates (1 ml) were incubated at 37° C. for 5 min with 10 μl of test compound or vehicle. […] After 30 min of incubation, the reaction was stopped by adding 0.1 ml of 0.2% BHT. TBA reagent was then added and the mixture was heated for 30 min in a boiling water bath. […] The amount of TBARS was quantified using the linear regression obtained from malondialdehyde (MDA) standards.

[7] = system: epinephrine-induced human platelet aggregation; conditions: Mustonen et al., 2000; read-out: estimated IC50 to inhibit epinephrine-induced platelet aggregation; cited from earlier work
5-HT2A receptor = 5-HT2A receptor (Rattus norvegicus, UniProt P14842); test: [3H]ketanserin receptor binding in rat cortex; parameters: from tissue; host or cells: Wistar rat cortex membranes; species or system Wistar rat
5-HT2A receptor, sequence (P14842 whole entry): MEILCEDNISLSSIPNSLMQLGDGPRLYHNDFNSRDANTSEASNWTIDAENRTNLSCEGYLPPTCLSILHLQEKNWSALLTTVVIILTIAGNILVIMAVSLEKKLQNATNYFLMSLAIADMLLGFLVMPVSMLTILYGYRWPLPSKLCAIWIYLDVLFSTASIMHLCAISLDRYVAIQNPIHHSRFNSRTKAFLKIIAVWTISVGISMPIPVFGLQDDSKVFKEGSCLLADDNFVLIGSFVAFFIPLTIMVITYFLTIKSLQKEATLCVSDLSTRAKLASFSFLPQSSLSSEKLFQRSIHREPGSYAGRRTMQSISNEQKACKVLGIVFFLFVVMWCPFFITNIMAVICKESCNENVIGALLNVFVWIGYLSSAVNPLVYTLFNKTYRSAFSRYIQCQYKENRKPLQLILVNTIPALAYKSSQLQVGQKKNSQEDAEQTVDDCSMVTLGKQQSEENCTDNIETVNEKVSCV
Description: as §1

β2 receptors = target: T4, β2 receptors (Rattus norvegicus, UniProt P10608); test: [3H]CGP-12177 receptor binding in rat lung; parameters: species or system Wistar rat; conditions: [3H]CGP-12177, rat lung
T4 construct: from tissue; host or cells: Wistar rat lung membranes
T4 sequence (P10608 whole entry): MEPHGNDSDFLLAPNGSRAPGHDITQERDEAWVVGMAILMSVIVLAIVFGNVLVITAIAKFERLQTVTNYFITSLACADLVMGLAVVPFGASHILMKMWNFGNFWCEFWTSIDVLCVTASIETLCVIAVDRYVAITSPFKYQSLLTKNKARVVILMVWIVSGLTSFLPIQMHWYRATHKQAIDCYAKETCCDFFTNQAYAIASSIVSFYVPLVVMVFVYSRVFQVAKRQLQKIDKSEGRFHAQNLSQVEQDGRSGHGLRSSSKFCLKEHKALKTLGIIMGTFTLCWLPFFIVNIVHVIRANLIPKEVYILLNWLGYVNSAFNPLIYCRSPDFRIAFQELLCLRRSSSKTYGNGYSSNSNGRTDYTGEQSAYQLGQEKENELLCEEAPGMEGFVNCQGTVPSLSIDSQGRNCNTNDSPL
Description: as §1

[8] = agent given after LPS injection (1 hr)
[9] = agent given before LPS injection (30 min)

## O=C(c1ccc(F)cc1)C1CCN(CCn2c(=O)[nH]c3ccccc3c2=O)CC1 [Ketanserin, reference compound]
α1-adrenergic receptor
  α1 pA2 value: 7.74 ± 0.32
5-HT1B
  Ki: > 10000 nM
α1 receptors
  Ki: 15.8 nM
[1]
  IC50: 10 nM
α2 receptors
  Ki: 2270 nM
5-HT1A
  Ki: > 10000 nM

## CC(CCc1ccccc1)NCC(O)c1ccc(O)c(C(N)=O)c1 (centres unmarked) [Labetalol, reference compound]
α1 receptors
  Ki: 52.5 nM
β1 receptors
  Ki: 4.17 nM

## O=c1n(CCCN2CCN(c3cccc(Cl)c3)CC2)nc2ccccn12 [Trazodone]
Anesthetized rats [2]
  BP and HR after intra-cisternal injection and NTS microinjection: increased BP and HR
[3]; [8]
  pD2 at 3rd hr: 6.01 ± 0.09
  pD2 at 5th hr: 5.04 ± 0.11
[3]; [9]
  pD2 at 3rd hr: 6.29 ± 0.21
  pD2 at 5th hr: 3.99 ± 0.16
[4]
  LPS-induced elevations of IL-1β, IL-6, IFN-γ and TNF-α levels: reduced only IL-1β and TNF-α
Anesthetized rats [5]
  aortic hyporeactivity and second prolonged hypotensive reaction induced by LPS: inhibited

## COC(=O)[C@@H]1[C@H]2C[C@H]3c4[nH]c5ccccc5c4CCN3C[C@@H]2CC[C@@H]1O [Yohimbine]
Anesthetized rats [2]
  BP and HR after intra-cisternal injection and NTS microinjection: increased BP and HR
Anesthetized rats [2]; low dose (0.03 μmol)
  clonidine-induced bradycardia: did not inhibit
  clonidine-induced hypotension: reduced
[3]; [8]
  pD2 at 3rd hr: 6.12 ± 0.14
  pD2 at 5th hr: 5.13 ± 0.26
[3]; [9]
  pD2 at 3rd hr: 6.73 ± 0.33
  pD2 at 5th hr: 3.44 ± 0.22
[4]
  LPS-induced elevations of IL-1β, IL-6, IFN-γ and TNF-α levels: reduced only IL-1β and TNF-α
[4]; 1 hour after LPS administration
  LPS-induced production of IFN-γ: insignificantly enhanced
[6]
  IC50: 11100 ± 350 nM
Anesthetized rats [5]
  aortic hyporeactivity and second prolonged hypotensive reaction induced by LPS: inhibited
[7]
  IC50: 980 nM

## Isoeugenodilol [reference compound]
5-HT2A receptor
  Ki: 1010 nM
α1 receptors
  Ki: 38.9 nM
β2 receptors
  Ki: 53.7 nM
α2 receptors
  Ki: 9700 nM
β1 receptors
  Ki: 43.6 nM

## Isoeugenolol [reference compound]
5-HT2A receptor
  Ki: 585 nM
α1 receptors
  Ki: > 10000 nM
β2 receptors
  Ki: 6860 nM
α2 receptors
  Ki: > 10000 nM
β1 receptors
  Ki: 209 nM

## Methsergide [reference compound]
5-HT1B
  Ki: > 10000 nM
α1 receptors
  Ki: > 10000 nM
α2 receptors
  Ki: 2430 nM
5-HT1A; read-out: Ki 5-HT1A, [3H]WAY100635
  Ki: > 10000 nM
